pIC50: −log10 of the molar value. Values joined by “and” are separate entries in the source; they are usually repeats but may differ in a detail not shown here. Equal entries are not always repeated.
Tested on: 415267-285-R-J2-PDC complex spheroid viability
Assay: Anticancer human tumor 415267-285-R-J2-PDC patient-derived breast carcinoma cell line growth inhibition [POLQ]
Conditions: for viability, T/C: stronger effect = lower value
Procedure: Multicellular complex tumor spheroid response to Polymerase (POL) inhibitors (novobiocin, ART-558, RP6685) in combination with a variety of drugs and investigational agents in selected tumor cell lines
The POL inhibitors (novobiocin, ART-558, and RP6685) were evaluated both individually and in combination with standard of care and investigational anticancer small molecules within a complex spheroid model of solid tumors. . Complex spheroids include a stromal component modeled by human endothelial cells (HUVEC) and fibroblasts modeled by human mesenchymal stem cells (MSCs). The concentration ranges selected for each drug and investigational agent were based upon clinically achievable concentrations if the clinical Cmax of the agent was known.
Compounds. The drugs and investigational agents: novobiocin (NSC847541), ART-558 (NSC835418), RP-6685 (NSC848927), peposertib (NSC802822), ceralasertib (NSC780249), elimusertib (NSC800525), camonsertib (NSC841442), AZD-1390 (NSC803789), olaparib (NSC753686), talazoparib (NSC767125), rucaparib (NSC756644), sotorasib (NSC818433), MRTX-1133 (NSC836407), SN-38 (NSC673596), topotecan (NSC609699), epotoside (NSC141540), doxorubicin (NSC123127), gemcitabine (NSC613327), 5-fluorouracil (NSC19893), paclitaxel (NSC125973), vemurafenib (NSC761431), MSA-2 (NSC828583), SN-011 (NSC837082), adavosertib (NSC754352), prexasertib (NSC758257), carboplatin (NSC241240) and oxaliplatin (NSC266046), were obtained from the National Cancer Institute (NCI) Developmental Therapeutics Program Chemical Repository (21). The FDA-approved anticancer drug set is available from the Developmental Therapeutics Program at https://dtp.cancer.gov/organization/dscb/obtaining/. […] The stock solutions were prepared in dimethyl sulfoxide (DMSO, Sigma-Aldrich, St. Louis, MO, cat. D2650), except for the platinum compounds which were prepared in saline (Quality Biological, Gaithersburg, MD, cat. 114-055-101), at 800-fold the tested concentration and stored at -70 degrees C prior to their use. All drugs and investigational agents were tested over a range starting from a high concentration at or near the clinical Cmax and decreasing in half-log increments. If the clinical Cmax for an agent had not been determined, the highest concentration tested was 10 microM, except for SN-38, which was tested at a high concentration of 1 microM.
Cell Culture. All cells were maintained in an incubator at 37 degrees C and 5% CO2 with 95% humidity. The PDC lines were cultured according to standard operating procedures established by the NCI PDMR (https://pdmr.cancer.gov). Table 3 of the manuscript, lists the cell lines along with the number of the three cell types plated to form the mct-spheroids and media for tumor cell growth. After thawing, all PDC lines, except 997537-175-T-J1-PDC and 415267-285-R-J2-PDC, were cultured in Matrigel-coated flasks prepared with a working solution of 1X Ham's F-12 nutrient mix, without supplementation (Thermo Fisher Scientific, cat. 11765054), 100 U/mL penicillin-streptomycin (Thermo Fisher Scientific, cat. 15140122), and 2.5% Matrigel (Corning Inc., Corning, NY, cat. 354248) for the first three passages. The two PDC lines 997537-175-T-J1-PDC and 415267-285-R-J2-PDC were cultured on uncoated flasks. The 857933-349-R-J2-PDC line was cultured in 6C/Colon 1B media containing advanced DMEM/F-12 (Thermo Fisher Scientific, cat. 12634028), 10 mM HEPES (Thermo Fisher Scientific, cat. 15630080), 1X GlutaMAX supplement (Thermo Fisher Scientific, cat. 35050061), 0.1 mg/mL primocin (InvivoGen, San Diego, CA, cat. ant-pm-2), 10% defined fetal bovine serum, heat inactivated (HyClone Laboratories Inc., Logan, UT, cat. SH30070.03HI), 50% L-WRN conditioned media (ATCC, cat. CRL-3276), 1.25 mM N-Acetyl-L-cysteine (Sigma-Aldrich, cat. A9165), 10 mM nicotinamide (Sigma-Aldrich, cat. N0636), 1X B-27 supplement (Thermo Fisher Scientific, cat. 17504044), 1X N-2 supplement (Thermo Fisher Scientific, cat. […]

[1] = curve of first compound, second compound 0.0316 µM
[2] = curve of first compound, second compound 0.1 µM
[3] = curve of first compound, second compound 0.316 µM
[4] = curve of first compound, second compound 1 µM
[5] = curve of first compound, second compound 3.16 µM
[6] = curve of first compound, second compound 10 µM
[7] = second compound 0.0316 µM, first compound 0.0316 µM
[8] = second compound 0.0316 µM, first compound 0.1 µM
[9] = second compound 0.0316 µM, first compound 0.316 µM
[10] = second compound 0.0316 µM, first compound 1 µM
[11] = second compound 0.0316 µM, first compound 3.16 µM
[12] = second compound 0.0316 µM, first compound 10 µM
[13] = second compound 0.1 µM, first compound 0.0316 µM
[14] = second compound 0.1 µM, first compound 0.1 µM
[15] = second compound 0.1 µM, first compound 0.316 µM
[16] = second compound 0.1 µM, first compound 1 µM
[17] = second compound 0.1 µM, first compound 3.16 µM
[18] = second compound 0.1 µM, first compound 10 µM
[19] = second compound 0.316 µM, first compound 0.0316 µM
[20] = second compound 0.316 µM, first compound 0.1 µM
[21] = second compound 0.316 µM, first compound 0.316 µM
[22] = second compound 0.316 µM, first compound 1 µM
[23] = second compound 0.316 µM, first compound 3.16 µM
[24] = second compound 0.316 µM, first compound 10 µM
[25] = second compound 1 µM, first compound 0.0316 µM
[26] = second compound 1 µM, first compound 0.1 µM
[27] = second compound 1 µM, first compound 0.316 µM
[28] = second compound 1 µM, first compound 1 µM
[29] = second compound 1 µM, first compound 3.16 µM
[30] = second compound 1 µM, first compound 10 µM
[31] = second compound 3.16 µM, first compound 0.0316 µM
[32] = second compound 3.16 µM, first compound 0.1 µM
[33] = second compound 3.16 µM, first compound 0.316 µM
[34] = second compound 3.16 µM, first compound 1 µM
[35] = second compound 3.16 µM, first compound 3.16 µM
[36] = second compound 3.16 µM, first compound 10 µM
[37] = second compound 10 µM, first compound 0.0316 µM
[38] = second compound 10 µM, first compound 0.1 µM
[39] = second compound 10 µM, first compound 0.316 µM
[40] = second compound 10 µM, first compound 1 µM
[41] = second compound 10 µM, first compound 3.16 µM
[42] = second compound 10 µM, first compound 10 µM
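Also: spheroids exposed to compounds for one week before readout.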
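For viability, T/C in this document: luminescence used as stand-in measure of viable cells; 100% = DMSO vehicle control viability.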

**Q.** What does the source list for Nc1ccn(C2OC(CO)C(O)C2(F)F)c(=O)n1 (stereo not given) + COC1C(OC(N)=O)C(O)C(Oc2ccc3c(O)c(NC(=O)c4ccc(O)c(CC=C(C)C)c4)c(=O)oc3c2C)OC1(C)C?
**A.** pIC50 [1]: > 7.50; pIC50 [2]: > 7.50; pIC50 [3]: > 7.50; pIC50 [4]: > 7.50; pIC50 [5]: > 7.50; pIC50 [6]: > 7.50; viability, T/C [7]: 6.95%; viability, T/C [8]: 7.41%; viability, T/C [9]: 5.11%; viability, T/C [10]: 5.97%; viability, T/C [11]: 5.96%; viability, T/C [12]: 7.99%; viability, T/C [13]: 7.63%; viability, T/C [14]: 6.2%; viability, T/C [15]: 4.86%; viability, T/C [16]: 5.57%; viability, T/C [17]: 5.43%; viability, T/C [18]: 5.04%; viability, T/C [19]: 6.64%; viability, T/C [20]: 8.84%; viability, T/C [21]: 5.17%; viability, T/C [22]: 4.85%; viability, T/C [23]: 6.19%; viability, T/C [24]: 4.45%; viability, T/C [25]: 31.1%; viability, T/C [26]: 5.76%; viability, T/C [27]: 5.6%; viability, T/C [28]: 5.77%; viability, T/C [29]: 5.83%; viability, T/C [30]: 5.65%; viability, T/C [31]: 7.56%; viability, T/C [32]: 6.05%; viability, T/C [33]: 5.39%; viability, T/C [34]: 6.49%; viability, T/C [35]: 5.4%; viability, T/C [36]: 5.83%; viability, T/C [37]: 24.7%; viability, T/C [38]: 5.53%; viability, T/C [39]: 6.82%; viability, T/C [40]: 6.71%; viability, T/C [41]: 7.68%; viability, T/C [42]: 5.33%

**Q.** Which results are given for C#Cc1c(F)ccc2cc(O)cc(-c3ncc4c(N5CC6CCC(C5)N6)nc(OCC56CCCN5CC(F)C6)nc4c3F)c12 (stereo not given) + Nc1ccc(C#CCN(C(=O)Cc2ncc(C(F)(F)F)cc2C(F)(F)F)c2ccc(F)cc2)nn1?
**A.** pIC50 [1]: < 5.00; pIC50 [2]: < 5.00; pIC50 [3]: < 5.00; pIC50 [4]: < 5.00; pIC50 [5]: < 5.00; pIC50 [6]: < 5.00; viability, T/C [7]: 105%; viability, T/C [8]: 110%; viability, T/C [9]: 84%; viability, T/C [10]: 101%; viability, T/C [11]: 97%; viability, T/C [12]: 99.5%; viability, T/C [13]: 100%; viability, T/C [14]: 96%; viability, T/C [15]: 94.4%; viability, T/C [16]: 98.6%; viability, T/C [17]: 97.3%; viability, T/C [18]: 92.3%; viability, T/C [19]: 114%; viability, T/C [20]: 110%; viability, T/C [21]: 113%; viability, T/C [22]: 111%; viability, T/C [23]: 98.5%; viability, T/C [24]: 102%; viability, T/C [25]: 105%; viability, T/C [26]: 102%; viability, T/C [27]: 95%; viability, T/C [28]: 112%; viability, T/C [29]: 96.1%; viability, T/C [30]: 105%; viability, T/C [31]: 113%; viability, T/C [32]: 106%; viability, T/C [33]: 105%; viability, T/C [34]: 106%; viability, T/C [35]: 115%; viability, T/C [36]: 111%; viability, T/C [37]: 97.7%; viability, T/C [38]: 103%; viability, T/C [39]: 102%; viability, T/C [40]: 96.4%; viability, T/C [41]: 102%; viability, T/C [42]: 116%

**Q.** COc1cccc(OCCCN)c1-c1cc(Nc2cnc(C#N)cn2)n[nH]1 was tested. Which viability, T/C (compound 0.00316 µM) did it give?
**A.** 36.5% and 110% and 99.9%

**Q.** And the viability, T/C (compound 0.0316 µM)?
**A.** 6.92% and 6.25% and 7.08%

**Q.** What about the viability, T/C (compound 0.1 µM) of the same compound?
**A.** 6.87% and 6.41% and 5.7%

**Q.** What about the viability, T/C (compound 0.316 µM) of the same compound?
**A.** 6.1% and 4.51% and 5.49%

**Q.** What about the viability, T/C (compound 1 µM) of the same compound?
**A.** 4.67% and 5.09% and 3.72%

**Q.** What about the pIC50 (curve of compound) of the same compound?
**A.** > 8.50 and 8.10 and 8.14
